Experimental data published in patent publication EP1712550A2, “Substituted triazole diamine derivatives as kinase inhibitors” (priority 2000, dated 2002).
pIC50: −log10 of the molar value. Where two headings read alike, the source gives them in different places.

How the values were obtained:
Assay type in all cases: biochemical
[1] = biological target: T1, EGFR (epidermal growth factor receptor) (Homo sapiens, UniProt P00533); assay: Kinase Selectivity Assay EGF-R; settings: for pIC50: Kinase Selectivity, Table 2, read-out: EGF-R IC50; for IC50: read-out: Kinase Assay (IC50 uM) EGF-R
T1 construct: is purified from human A431 cell membranes (Sigma, St. Louis, MO, Cat.# E3641); purchased Sigma, St. Louis, MO E3641; host or cells: human A431 cell membranes (endogenous protein)
T1 sequence (P00533 25-1210): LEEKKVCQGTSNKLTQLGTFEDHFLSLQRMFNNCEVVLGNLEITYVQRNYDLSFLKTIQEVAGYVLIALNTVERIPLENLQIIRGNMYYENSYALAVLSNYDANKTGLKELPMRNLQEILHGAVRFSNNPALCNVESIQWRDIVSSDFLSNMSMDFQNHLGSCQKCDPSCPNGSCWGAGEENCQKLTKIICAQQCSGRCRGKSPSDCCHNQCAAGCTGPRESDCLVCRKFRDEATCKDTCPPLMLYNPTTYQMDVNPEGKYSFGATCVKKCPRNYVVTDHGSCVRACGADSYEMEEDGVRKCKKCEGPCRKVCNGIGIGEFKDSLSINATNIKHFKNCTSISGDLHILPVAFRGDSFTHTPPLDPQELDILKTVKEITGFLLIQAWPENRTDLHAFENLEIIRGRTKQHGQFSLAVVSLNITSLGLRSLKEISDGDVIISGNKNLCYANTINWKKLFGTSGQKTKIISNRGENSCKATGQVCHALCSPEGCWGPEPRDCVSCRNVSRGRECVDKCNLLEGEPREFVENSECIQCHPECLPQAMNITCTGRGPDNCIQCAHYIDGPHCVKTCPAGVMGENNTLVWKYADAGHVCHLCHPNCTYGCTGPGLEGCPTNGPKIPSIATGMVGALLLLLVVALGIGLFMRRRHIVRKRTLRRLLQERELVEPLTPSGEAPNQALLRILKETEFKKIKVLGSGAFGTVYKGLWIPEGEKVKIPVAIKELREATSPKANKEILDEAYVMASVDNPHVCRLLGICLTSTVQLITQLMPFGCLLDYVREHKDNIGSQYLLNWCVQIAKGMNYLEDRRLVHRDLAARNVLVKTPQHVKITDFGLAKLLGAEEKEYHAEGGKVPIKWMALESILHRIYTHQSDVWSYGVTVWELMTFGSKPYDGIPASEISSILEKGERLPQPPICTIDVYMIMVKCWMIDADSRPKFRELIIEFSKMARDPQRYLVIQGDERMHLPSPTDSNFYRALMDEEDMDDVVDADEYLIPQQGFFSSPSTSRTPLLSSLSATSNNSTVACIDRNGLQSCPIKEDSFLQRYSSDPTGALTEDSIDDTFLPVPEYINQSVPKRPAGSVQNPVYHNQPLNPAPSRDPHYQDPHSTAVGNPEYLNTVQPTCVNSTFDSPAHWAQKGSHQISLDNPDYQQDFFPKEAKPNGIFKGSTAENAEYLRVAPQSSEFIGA

[2] = biological target: T2, VEGF-R (vascular endothelial growth factor receptor-2) (Rattus norvegicus, UniProt O08775); assay: VEGF-R Screening Assay; settings: read-out: Kinase Assay (IC50 uM) VEGF-R
T2 construct: 6xHis (polyhistidine) (N)
T2 sequence (O08775 786-1343): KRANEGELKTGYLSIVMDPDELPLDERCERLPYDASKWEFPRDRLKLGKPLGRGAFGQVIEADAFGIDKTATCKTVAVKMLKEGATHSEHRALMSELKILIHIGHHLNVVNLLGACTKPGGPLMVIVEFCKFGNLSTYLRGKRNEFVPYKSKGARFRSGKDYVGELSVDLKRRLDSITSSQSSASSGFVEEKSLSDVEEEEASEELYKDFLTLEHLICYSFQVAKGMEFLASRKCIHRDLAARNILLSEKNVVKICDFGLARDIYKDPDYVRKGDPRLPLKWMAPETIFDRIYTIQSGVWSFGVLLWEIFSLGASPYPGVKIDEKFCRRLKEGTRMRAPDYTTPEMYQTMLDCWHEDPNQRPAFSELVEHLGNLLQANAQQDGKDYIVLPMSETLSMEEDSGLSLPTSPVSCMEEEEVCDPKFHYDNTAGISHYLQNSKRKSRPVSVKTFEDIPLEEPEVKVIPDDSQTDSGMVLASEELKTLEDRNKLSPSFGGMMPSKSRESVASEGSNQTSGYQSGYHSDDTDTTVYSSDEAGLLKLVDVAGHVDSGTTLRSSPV
Protocol: (§1) 70 µL of the kinase reaction mixture was dispensed into the well of a streptavidin coated FlashPlate™ (Cat. # SMP103, NEN, Boston, MA). Then 1 µL of test compound stock in 100% DMSO was added to the wells resulting in a final concentration of 1% DMSO in the reaction with a 100 µL final reaction volume. Next, soluble rat tyrosine kinase containing an N-terminal 6XHIS tag was diluted in 50 mM Tris-HCl pH=8.0, 0.1% BSA at a concentration of 5 ng per µL and 30 µL (150 ng enzyme per test well) was added to each well to initiate the reaction. The reaction was incubated for one hour at 30°C. At the end of the 1-hour incubation, the reaction was terminated by aspirating the reaction mixture from the plate and washing the wells twice with PBS containing 100 mM EDTA. The PLC1 biotinylated peptide substrate became immobilized on the Flashplate™ and the incorporation of ^33P-γ-ATP was measured by reading the plate on a scintillation counter. Inhibition of the enzymatic activity of the VEGF-R was measured by observing a reduced amount of ^33P-γ-ATP incorporated into the immobilized peptide. […]

CDK1:Cyclin-B = biological target: T3, CDK1:Cyclin-B (Homo sapiens, UniProt P06493); assay: CDK1 Screening Assay; settings: read-out: Kinase Assay (IC50 uM) CDK1
T3 construct: purchased New England Biolabs, Beverly, MA 6020; host or cells: insect cells
T3 sequence (P06493 whole entry): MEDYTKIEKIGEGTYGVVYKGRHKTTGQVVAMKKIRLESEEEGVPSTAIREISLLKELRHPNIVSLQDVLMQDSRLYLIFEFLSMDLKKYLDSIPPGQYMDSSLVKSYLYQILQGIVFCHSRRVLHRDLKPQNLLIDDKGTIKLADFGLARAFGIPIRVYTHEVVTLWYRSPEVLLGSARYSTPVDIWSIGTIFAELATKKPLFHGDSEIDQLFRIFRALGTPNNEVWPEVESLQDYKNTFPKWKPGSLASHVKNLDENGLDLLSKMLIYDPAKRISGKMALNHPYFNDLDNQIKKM
T3 sequence (P14635 whole entry partner): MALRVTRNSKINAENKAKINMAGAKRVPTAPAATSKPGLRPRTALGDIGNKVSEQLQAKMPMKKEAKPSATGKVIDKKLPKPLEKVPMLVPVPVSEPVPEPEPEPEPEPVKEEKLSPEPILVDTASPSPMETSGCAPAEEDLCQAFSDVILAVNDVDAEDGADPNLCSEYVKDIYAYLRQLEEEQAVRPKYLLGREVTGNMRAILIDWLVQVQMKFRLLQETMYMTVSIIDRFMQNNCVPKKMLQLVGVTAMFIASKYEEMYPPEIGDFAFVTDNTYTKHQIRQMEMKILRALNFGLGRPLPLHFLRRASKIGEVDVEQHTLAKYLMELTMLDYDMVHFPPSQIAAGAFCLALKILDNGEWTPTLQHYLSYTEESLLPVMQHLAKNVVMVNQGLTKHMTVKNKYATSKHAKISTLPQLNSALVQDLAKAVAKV
Protocol: as §1, with “100 µl” for “100 µL”, “Next, CDK1:Cyclin-B protein” for “Next, soluble rat tyrosine kinase containing an N-terminal 6XHIS tag”, “of 1” for “of 5”, “30 µl (30ng” for “30 µL (150 ng”, “The histone-H1” for “The PLC1”, “of CDK1” for “of the VEGF-R”

[3] = biological target: T4, HER2 (human epidermal growth factor receptor-2) (Homo sapiens, UniProt P04626); assay: Kinase Selectivity Assay HER2; settings: for IC50: read-out: Kinase Assay (IC50 uM) HER2 Kinase
T4 construct: begins at amino acid 676 followed by the remainder of the HER2 cytoplasmic domain; polyhistidine (N)
T4 sequence (P04626 676-1255 limits assumed): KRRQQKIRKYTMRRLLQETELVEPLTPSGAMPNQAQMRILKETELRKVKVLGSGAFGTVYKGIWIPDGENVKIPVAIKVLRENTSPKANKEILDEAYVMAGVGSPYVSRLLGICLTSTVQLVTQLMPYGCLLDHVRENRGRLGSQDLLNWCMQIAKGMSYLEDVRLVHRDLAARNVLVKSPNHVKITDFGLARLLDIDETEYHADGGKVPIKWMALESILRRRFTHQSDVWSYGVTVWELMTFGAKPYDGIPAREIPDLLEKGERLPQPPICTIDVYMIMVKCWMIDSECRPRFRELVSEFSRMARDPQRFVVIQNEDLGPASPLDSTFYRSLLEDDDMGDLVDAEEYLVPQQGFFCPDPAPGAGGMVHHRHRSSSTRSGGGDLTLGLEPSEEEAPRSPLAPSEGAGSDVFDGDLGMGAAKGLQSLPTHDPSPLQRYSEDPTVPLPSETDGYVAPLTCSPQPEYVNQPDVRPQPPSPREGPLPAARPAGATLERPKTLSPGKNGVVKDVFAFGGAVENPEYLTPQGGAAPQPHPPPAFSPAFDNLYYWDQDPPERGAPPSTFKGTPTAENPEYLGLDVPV

Structure (SMILES) | IC50 [2] [µM] | IC50 [1] [µM] | further results
Nc1nc(Nc2ccc(S(N)(=O)=O)cc2)nn1C(=O)c1c(F)cccc1F [Cpd 1, 4-[[5-amino-1-(2,6-difluorobenzoyl)-1H-1,2,4-triazol-3-yl]amino]-benzenesulfonamide] | – | – | pIC50 [1]: < 4.00
Nc1nc(Nc2ccc(S(N)(=O)=O)cc2)nn1C(=O)c1cccs1 [Cpd 14, 4-[[5-amino-1-(2-thienylcarbonyl)-1H-1,2,4-triazol-3-yl]amino]-benzenesulfonamide] | – | – | pIC50 [1]: 5.72
Nc1nc(Nc2ccc(S(N)(=O)=O)cc2)nn1C(=O)c1sccc1F [Cpd 16, 4-[[5-amino-1-[(3-fluoro-2-thienyl)carbonyl]-1H-1,2,4-triazol-3-yl]amino]-benzenesulfonamide] | – | – | pIC50 [1]: < 4.00
Nc1nc(Nc2ccc(S(N)(=O)=O)cc2)nn1C(=O)c1sccc1Cl [Cpd 17, 4-[[5-amino-1-[(3-chloro-2-thienyl)carbonyl]-1H-1,2,4-triazol-3-yl]amino]-benzenesulfonamide] | – | – | pIC50 [1]: 5.38
Nc1nc(Nc2ccc(S(=O)(=O)N3CCCCC3)cc2)nn1C(=O)c1cccs1 [Cpd 23, N^3-[4-(1-piperidinylsulfonyl)phenyl]-1-(2-thienylcarbonyl)-1H-1,2,4-triazole-3,5-diamine] | – | – | pIC50 [1]: < 4.00
Nc1nc(Nc2ccc(S(N)(=O)=O)cc2)nn1C(=O)c1ccsc1 [Cpd 30, 4-[[5-amino-1-(3-thienylcarbonyl)-1H-1,2,4-triazol-3-yl]amino]-benzenesulfonamide] | – | – | pIC50 [1]: 5.02
CCc1ccc(C(=O)n2nc(Nc3ccc(S(N)(=O)=O)cc3)nc2N)s1 [Cpd 32, 4-[[5-amino-1-[(5-ethyl-2-thienyl)carbonyl]-1H 1,2,4-triazol-3-yl]amino]-benzenesulfonamide] | – | – | pIC50 [1]: < 4.00
Cc1nc(C)c(C(=O)n2nc(Nc3ccc(S(N)(=O)=O)cc3)nc2N)s1 [Cpd 34, 4-[[5-amino-1-[(2,4-dimethyl-5-thiazolyl)carbonyl]-1H-1,2,4-triazol-3-yl]amino]-benzenesulfonamide] | 0.068 | > 100 | –
Nc1nc(Nc2ccc(S(N)(=O)=O)cc2)nn1C(=O)C1CCCC1 [Cpd 38, 4-[[5-amino-1-(cyclopentylcarbonyl)-1H-1,2,4-triazol-3-yl]amino]-benzenesulfonamide] | 0.88 | > 100 | IC50 (CDK1:Cyclin-B): 0.029 µM
Nc1nc(Nc2ccc(S(N)(=O)=O)cc2)nn1C(=O)C1CCCCC1 [Cpd 39, 4-[[5-amino-1-(cyclohexylcarbonyl)-1H-1,2,4-triazol-3-yl]amino]-benzenesulfonamide] | 0.334 | > 100 | IC50 (CDK1:Cyclin-B): 0.012 µM
CC(C)(C)c1ccc(C(=O)n2nc(Nc3ccc(S(N)(=O)=O)cc3)nc2N)s1 [Cpd 51, 4-[[5-amino-1-[[5-(1,1-dimethylethyl)-2-thienyl]carbonyl]-1H-1,2,4-triazol-3-yl]amino]-benzenesulfonamide] | – | 1.1 | –
Nc1ccc(F)c(C(=O)n2nc(Nc3ccc(S(N)(=O)=O)cc3)nc2N)c1F [Cpd 55, 4-[[5-amino-1-(3-amino-2,6-difluorobenzoyl)-1H-1,2,4-triazol-3-yl]amino]-benzenesulfonamide] | 0.577 | 16.1 | –
Cc1ccccc1C(=O)n1nc(Nc2ccc(S(N)(=O)=O)cc2)nc1N [Cpd 57, 4-[[5-amino-1-(2-methylbenzoyl)-1H-1,2,4-triazol-3-yl]amino]-benzenesulfonamide] | 0.191 | > 100 | –
CC(O)c1ccc(F)c(C(=O)n2nc(Nc3ccc(S(N)(=O)=O)cc3)nc2N)c1F (stereo not shown) [Cpd 58, 4-[[5-amino-1-[2,6-difluoro-3-(1-hydroxyethyl)benzoyl]-1H-1,2,4-triazol-3-yl]amino]-benzenesulfonamide] | – | > 10 | –
Nc1nc(Nc2ccc(S(N)(=O)=O)cc2)nn1C(=O)c1c(F)cccc1Cl [Cpd 70, 4-[[5-amino-1-(2-chloro-6-fluorobenzoyl)-1H-1,2,4-triazol-3-yl]amino]-benzenesulfonamide] | 0.911 | > 100 | –
CN1CCN(c2ccc(Nc3nc(N)n(C(=O)c4c(F)cccc4F)n3)cc2)CC1 [Cpd 71, 1-(2,6-difluorobenzoyl)-N^3-[4-(4-methyl-1-piperazinyl)phenyl]-1H-1,2,4-triazole-3,5-diamine] | – | > 10 | –
CNS(=O)(=O)c1ccc(Nc2nc(N)n(C(=O)c3sccc3C)n2)cc1 [Cpd 82, 4-[[5-amino-1-[(3-methyl-2-thienyl)carbonyl]-1H-1,2,4-triazol-3-yl]amino]-N-methyl-benzenesulfonamide] | 0.022 | > 100 | IC50 [3]: 0.118 µM
CNS(=O)(=O)c1ccc(Nc2nc(N)n(C(=O)c3sc(C)cc3C)n2)cc1 [Cpd 83, 4-[[5-amino-1-[(3,5-dimethyl-2-thienyl)carbonyl]-1H-1,2,4-triazol-3-yl]amino]-N-methyl-benzenesulfonamide] | 0.04 | > 100 | IC50 (CDK1:Cyclin-B): 0.008 µM
CCc1ccc(C(=O)n2nc(Nc3ccc(S(=O)(=O)NC)cc3)nc2N)s1 [Cpd 84, 4-[[5-amino-1-[(5-ethyl-2-thienyl)carbonyl]-1H-1,2,4-triazol-3-yl]amino]-N-methyl-benzenesulfonamide] | 0.043 | > 10 | IC50 [3]: 0.052 µM
Cc1cc(C)c(C(=O)n2nc(Nc3ccc(-n4ccnc4)cc3)nc2N)s1 [Cpd 92, 1-[(3,5-diinethyl-2-thienyl)carbonyl]-N^3-[4-(1H-imidazol-1-yl)phenyl]-1H-1,2,4-triazole-3,5-diamine] | – | > 100 | –
CCc1ccc(C(=O)n2nc(Nc3ccc(S(=O)(=O)NCCN(C)C)cc3)nc2N)s1 [Cpd 103, 4-[[5-amino-1-[(5-ethyl-2-thienyl)carbonyl]-1H-1,2,4-triazol-3-yl]amino]-N-[2-(dimethylamino)ethyl]-benzenesulfonamide] | – | > 10 | –
Cc1ccsc1C(=O)n1nc(Nc2ccc(S(=O)(=O)NCCN(C)C)cc2)nc1N [Cpd 104, 4-[[5-amino-1-[(3-methyl-2-thienyl)carbonyl]-1H-1,2,4-triazol-3-yl]amino]-N-[2-(dimethylamino)ethyl]-benzenesulfonamide] | 0.016 | > 10 | IC50 [3]: 0.202 µM
CCc1ccc(C(=O)n2nc(Nc3ccc(NS(C)(=O)=O)cc3)nc2N)s1 [Cpd 110, N-[4-[[5-amino-1-[(5-ethyl-2-thienyl)carbonyl]-1H-1,2,4-triazol-3-yl]amino]phenyl]-methanesulfonamide] | 0.014 | > 10 | IC50 (CDK1:Cyclin-B): 0.022 µM
Cc1ccsc1C(=O)n1nc(Nc2ccc(N3CCNC3=O)cc2)nc1N [Cpd 113, 1-[4-[[5-amino-1-[(3-methyl-2-thienyl)carbonyl]-1H-1,2,4-triazol-3-yl]amino]phenyl]-2-imidazolidinone] | – | > 10 | –
Cc1ccsc1C(=O)n1nc(Nc2ccc(N3CCCS3(=O)=O)cc2)nc1N [Cpd 116, N^3-[4-(1,1-dioxido-2-isothiazolidinyl)phenyl]-1-[(3-methyl-2-thienyl)carbonyl]-1H-1,2,4-triazole-3,5-diamine] | – | > 100 | –
Nc1nc(Nc2ccc(S(=O)(=O)Nc3ccccn3)cc2)nn1C(=O)c1c(F)cccc1F [Cpd 118, 4-[[5-amino-1-(2,6-difluorobenzoyl)-1H-1,2,4-triazol-3-yl]amino]-N-(2-pyridinyl)-benzenesulfonamide] | – | > 100 | –
Cc1cc(C)c(C(=O)n2nc(Nc3ccc(S(=O)(=O)Nc4ccccn4)cc3)nc2N)s1 [Cpd 120, 4-[[5-amino-1-[(3,5-dimethyl-2-thienyl)carbonyl]-1H-1,2,4-triazol-3-yl]amino]-N-(2-pyridinyl)-benzenesulfonamide] | – | > 10 | pIC50 ([3]; Table 1, read-out: HER2 IC50): 6.00; IC50 [3]: 1 µM
Cc1ccc(F)c(C(=O)n2nc(N)nc2Nc2ccc(S(N)(=O)=O)cc2)c1F [Cpd 123, 4-[[3-amino-1-(2,6-difluoro-3-methylbenzoyl)-1H-1,2,4-triazol-5-yl]amino]-benzenesulfonamide] | 5.52 | > 100 | –
